What was measured:
Type in all cases: physicochemical
[1] = Stability analysis (chemical stability by HPLC, physical stability by XRPD); conditions: for chemically and physically stable for at least about / chemically and physically stable for at least about (e.g. value): various storage conditions, including 40° C./75% RH (e.g., open container)
Description: In some embodiments, less than 25% of the form of Compound 1 decomposes, in some embodiments, less than about 20%, less than about 15%, less than about 10%, less than about 5%, less than about 3%, less than about 1%, less than about 0.5% of the form of Compound 1 decomposes under the conditions specified. In some embodiments, no detectable amount of the form of Compound 1 decomposes.
In some embodiments, less than 25% of the form of Compound 1 changes into one or more different physical forms when subjected to specified conditions, In some embodiments, less than about 20%, less than about 15%, less than about 10%, less than about 5%, less than about 3%, less than about 1%, less than about 0.5% of the form of Compound 1 changes into one or more different physical forms of Compound 1 when subjected to specified conditions. In some embodiments, no detectable amount of the form of Compound 1 changes into one or more different physical forms of Compound 1.

[2] = Solubility in various media (equilibration on a shaking bed for 24 hours, HPLC); conditions: for Solubility, Actual Conc / Solubility in 0.05M Buffers, Actual Conc: 24 h equilibration; for Solubility, Total Conc: ambient, 24 h
Description: (§1) Solubility: The solubility of form IA in various media was determined at ambient conditions by equilibrating aliquots of the drug powder with the solvents on a shaking bed for 24 hours. The samples were centrifuged, the saturated solutions of the drug were then separated and analyzed by HPLC. The sample volume was 100 μL and the target concentration was 10 mg/mL. The saturated solutions were diluted appropriately and analyzed by HPLC.
Solubility: Solubility of form IIC in various media was determined at ambient conditions by equilibrating aliquots of the drug powder with the solvents on a shaking bed for 24 hours. Samples were spun and the supernatant was carefully separated and analyzed by HPLC at the 24-hour timepoint using a stability-indicating method. […] Some variability may occur between lots of a particular sample.
as §1, with “Solubility” for “The solubility”, “IIIB” for “IA”, “medium” for “solvents”, “μL,” for “μL”, “mg/ml.” for “mg/mL.”

[3] = Dynamic Vapor Sorption (DVS), step isothermal study; conditions: 25° C.; for release of adsorbed water in the desorption stage: 95% to 5% RH; for moisture picked up at 95% relative humidity (RH): adsorption 5% to 95% RH; for weight gain from 5% to 95% relative humidity: step isothermic study (DVS)
Description: (§2) Dynamic Vapor Sorption (DVS): A step isothermal study (25° C.) was conducted on a representative sample of form IA using a VTI SGA 100 Symmetric Vapor Sorption Analyzer. An aliquot of approximately 10 mg was weighed in an open platinum dish and exposed to different levels of humidity at 25° C. Relative humidity (RH) steps were from 5% to 95% (adsorption) and from 95% to 5% in increments of 5% RH (desorption). The equilibration criterion was 0.0100 wt % change in 5 min, with a max equilibration time of 180 min. The sample picked up ˜8 wt % moisture at 95% relative humidity (RH).
as §2, with “a” for “a representative”, “form IIA” for “form IA”, “The material” for “The sample”, “up ˜11” for “up ˜8”
as §2, with “a” for “a representative”, “form IIC” for “form IA”, “The material” for “The sample”, “up ˜4” for “up ˜8”
Water Vapor Sorption analysis: Vapor Sorption analysis of a sample of form IIIB was done using a SGA-100 Vapor Sorption Analyzer (VTI, Hialeah, Fla.). A sample with weight of approximately 7-12 mg was measured isothermally at 25° C. Data was collected by Isotherm software and analyzed by Microsoft Excel with a VTI macro (VTI, Hialeah, Fla.). The sample gained about 4.6% in weight from 5 to 95% RH (25° C.).

[4] = aqueous solution, pH of about 1.6

CCNC(=O)Nc1nc2cc(-c3cncc(F)c3)cc(-c3ncccn3)c2[nH]1.CCS(=O)(=O)O [Form IIA, 1-ethyl-3-(5-(5-fluoropyridin-3-yl)-7-(pyrimidin-2-yl)-1H-benzo[d]imidazol-2-yl)urea•monoesylate]
change of solid form on storage ([1]; 40° C./75% RH for about 24 hours or for about 2 weeks): converted to form IIB | solubility [2, 4]: > 150 mg/mL | release of adsorbed water in the desorption stage ([3]; DVS): Not all of the adsorbed water was released | moisture picked up at 95% relative humidity (RH) ([3]; DVS): ~11 wt % | weight gain from 5% to 95% relative humidity [3]: about 10%

CCNC(=O)Nc1nc2cc(-c3cncc(F)c3)cc(-c3ncccn3)c2[nH]1.CCS(=O)(=O)O [Form IIB, 1-ethyl-3-(5-(5-fluoropyridin-3-yl)-7-(pyrimidin-2-yl)-1H-benzo[d]imidazol-2-yl)urea•monoesylate]
solubility [2, 4]: > 150 mg/mL

CCNC(=O)Nc1nc2cc(-c3cncc(F)c3)cc(-c3ncccn3)c2[nH]1.CCS(=O)(=O)O [Form IIC, 1-ethyl-3-(5-(5-fluoropyridin-3-yl)-7-(pyrimidin-2-yl)-1H-benzo[d]imidazol-2-yl)urea•monoesylate]
chemically and physically stable for at least about [1]: at least 2 weeks | chemically and physically stable for at least about (e.g. value) [1]: at least 6 months | Solubility, Actual Conc ([2]; 0.1N HCl, pH 1.10, target 100 mg/ml): 105 mg/mL | Solubility, Actual Conc ([2]; 0.5% Methylcellulose (MC)/0.5% Sodium Lauryl Sulfate (SLS), pH 1.58, target 100 mg/ml): 94.8 mg/mL | Solubility, Actual Conc ([2]; 0.9% Sodium Chloride, target 100 mg/ml): 33.6 mg/mL | Solubility, Actual Conc ([2]; 1% Deoxycholic sodium salt (DOSS), pH 1.71, target 150 mg/ml): 125 mg/mL | Solubility, Actual Conc ([2]; 1% Docusate, pH 1.58, target 150 mg/ml): 159 mg/mL | Solubility, Actual Conc ([2]; 1% Pluronic F68, pH 1.57, target 150 mg/ml): 155 mg/mL | Solubility, Actual Conc ([2]; 1% Pluronic F108, pH 1.58, target 150 mg/ml): 159 mg/mL | Solubility, Actual Conc ([2]; 1% SLS, pH 1.56, target 150 mg/ml): 126 mg/mL | Solubility, Actual Conc ([2]; 1% Tween 80, pH 1.60, target 150 mg/ml): 130 mg/mL | Solubility, Actual Conc ([2]; 4% Glycerol, pH 1.59, target 150 mg/ml): 162 mg/mL | Solubility, Actual Conc ([2]; 10% Cremophor, pH 1.64, target 150 mg/ml): 137 mg/mL | Solubility, Actual Conc ([2]; 10% Polyvinyl pyrrolidone (PVP) K30, pH 1.70, target 150 mg/ml): 152 mg/mL | Solubility, Actual Conc ([2]; 10% Solutol, pH 1.61, target 150 mg/ml): 170 mg/mL | Solubility, Actual Conc ([2]; 10% Tween 80, pH 1.64, target 150 mg/ml): 144 mg/mL | Solubility, Actual Conc ([2]; 10% Vitamin E TPGS, pH 1.58, target 150 mg/ml): 138 mg/mL | Solubility in 0.05M Buffers, Actual Conc ([2]; Potassium chloride hydrochloric acid, pH 1, experimental pH 1.01): 113 mg/mL | Solubility in 0.05M Buffers, Actual Conc ([2]; Potassium phosphate monobasic-sodium hydroxide, pH 7): 48.2 mg/mL | Solubility in 0.05M Buffers, Actual Conc ([2]; Potassium phosphate monobasic-sodium hydroxide, pH 9, experimental pH 1.75): 67.0 mg/mL | Solubility, Actual Conc ([2]; Tetraglucol:Water (1:1), pH 2.08, target 50 mg/ml): 29.6 mg/mL | Solubility, Actual Conc ([2]; Water, pH 1.60, target 150 mg/ml): 152 mg/mL | solubility [2, 4]: > 150 mg/mL | Solubility, Actual Conc ([2]; pH 7 Tris Buffer, target 100 mg/ml): 30.0 mg/mL | hydrate formation ([3]; DVS, 5% to 95% RH): did not form a hydrate | release of adsorbed water in the desorption stage ([3]; DVS): All adsorbed water was released | moisture picked up at 95% relative humidity (RH) ([3]; DVS): ~4 wt %

CCNC(=O)Nc1nc2cc(-c3cncc(F)c3)cc(-c3ncccn3)c2[nH]1.CCS(=O)(=O)O [Form IID, 1-ethyl-3-(5-(5-fluoropyridin-3-yl)-7-(pyrimidin-2-yl)-1H-benzo[d]imidazol-2-yl)urea•monoesylate]
solubility [2, 4]: > 150 mg/mL

CCNC(=O)Nc1nc2cc(-c3cncc(F)c3)cc(-c3ncccn3)c2[nH]1.CS(=O)(=O)O [Form IIIB, 1-ethyl-3-(5-(5-fluoropyridin-3-yl)-7-(pyrimidin-2-yl)-1H-benzo[d]imidazol-2-yl)urea•monomesylate]
chemically and physically stable for at least about [1]: at least 2 weeks | chemically and physically stable for at least about (e.g. value) [1]: at least 1 months | Solubility, Total Conc ([2]; Captisol, 20%): 3.81 mg/mL | Solubility, Total Conc ([2]; Captisol, 30%, pH 7): 0.634 mg/mL | Solubility, Total Conc ([2]; Ethanol): 0.439 mg/mL | Solubility, Total Conc ([2]; HCl, 0.1N): 12.2 mg/mL | Solubility, Total Conc ([2]; Miglyol810): 0.0219 mg/mL | Solubility, Total Conc ([2]; Octanol): 0.0584 mg/mL | Solubility, Total Conc ([2]; PEG400): 0.729 mg/mL | Solubility, Total Conc ([2]; PluronicF108, 1%): >12.0 mg/mL | Solubility, Total Conc ([2]; PropyleneGlycol): 5.74 mg/mL | Solubility, Total Conc ([2]; SGF): >12.0 mg/mL | Solubility, Total Conc ([2]; SIF): 0.0284 mg/mL | Solubility, Total Conc ([2]; SodiumLaurylSulfate, 1%): 0.623 mg/mL | Solubility, Total Conc ([2]; TrisBuffer, pH 7): 0.0276 mg/mL | Solubility, Total Conc ([2]; Vitamin E TPGS, 10%, 1% HPMC): >12.0 mg/mL | Solubility, Total Conc ([2]; Vitamin E TPGS, 10%): 11.5 mg/mL | Solubility, Total Conc ([2]; Water): >12.0 mg/mL | solubility ([2]; at pH of about 4.4): > 12 mg/mL | solubility ([2]; in simulated gastric fluid (SGF)): > 12 mg/mL | weight gain from 5% to 95% relative humidity [3]: about 4.6%

CCNC(=O)Nc1nc2cc(-c3cncc(F)c3)cc(-c3ncccn3)c2[nH]1.CS(=O)(=O)O [crystalline1-ethyl-3-(5-(5-fluoropyridin-3-yl)-7-(pyrimidin-] [1-ethyl-3-(5-(5-fluoropyridin-3-yl)-7-(pyrimidin-2-yl)-1H-benzo[d]imidazol-2-yl)urea.monomesylate]
remains chemically stable for at least ([1]; 40° C./75% relative humidity): at least 1 months | remains in substantially the same physical form for at least ([1]; 40° C./75% relative humidity): at least 1 months | solubility ([2]; at pH of about 4.4): greater than 12 mg/ml | weight gain from 5% to 95% relative humidity [3]: 4.6%

CCNC(=O)Nc1nc2cc(-c3cncc(F)c3)cc(-c3ncccn3)c2[nH]1.CCS(=O)(=O)O [crystalline 1-ethyl-3-(5-(5-fluoropyridin-3-yl)-7-(pyrimidin] [1-ethyl-3-(5-(5-fluoropyridin-3-yl)-7-(pyrimidin-2-yl)-1H-benzo[d]imidazol-2-yl)urea.monoesylate]
remains chemically stable for at least about ([1]; 40° C./75% relative humidity): at least 2 weeks | remains in substantially the same physical form for at least ([1]; 40° C./75% relative humidity): at least 6 months | remains in substantially the same physical form for at least about ([1]; 40° C./75% relative humidity): at least 2 weeks | solubility [2, 4]: greater than 150 mg/ml

From patent US8217172B2, “Solid forms of 1-ethyl-3-(5-(5-fluoropyridin-3-yl)-7-(pyrimidin-2-yl)-1H-benzo[d]imidazol-2-yl)urea” (Vertex Pharmaceuticals Incorporated, priority 2007, dated 2012)
